“Also recorded” adds a separate entry of the source.
Key:
C57BL/6 mice [1] = test: CpG-induced pleurisy model; format: in vivo; conditions: CpG 750 ng/cavity, 12 hours
Description: Animals received one single injection of C-class CpG in the pleural cavity with the indicated dose of agonist. At indicated timepoints, mice were anesthetized intraperitoneally with a mixture of Ketamine/Xylazine and then killed with overdose of intravenous anaesthetic (80 mg/Kg and 15 mg/Kg, respectively). Pleural cavity was washed two times with 1 mL of PBS 10 mM EDTA resulting in a total of 2 mL of lavage. Cells were centrifuged and used for total cell count and differential cell count after Romanowsky staining (Panótico Rápido LB). For the pleurisy model, mice were orally treated with AS605240 twice: 1 h prior the CpG injection and then 6 h after CpG, 20 mg/kg diluted in 0,9% Saline + 0.5% CMC + 0.1% Tween 20.
(§1) In this study, female C57BL/6 mice from 8 to 12 weeks of age were used in all experiments except for the chimaera mice. Animals were obtained from the UFMG’s Centro de Bioterismo and kept in the Laboratório de Imunofarmacologia with food and water ad libitum and day/night light cycles. For all investigations, mice were humanely sacrificed using an intra-peritoneal overdose of Ketamine/Xylazine at a dose equivalent to at least five times the dose used for anesthetising the mice. The animal studies presented here were registered and approved by the UFMG’s Comitê de Ética em Utilização Animal (CEUA) No. 191/2010 and 51/2011 and all the procedures were performed in accordance with the guidelines of the Conselho Nacional De Controle De Experimentação Animal’s resolution of Brazilian Ministry of Science, Technology, Innovation and Communication.

C57BL/6 mice [2] = test: APAP-induced liver injury (DILI) model; format: in vivo; conditions: for reduction in serum ALT levels: AS605240 20 mg/Kg oral 6 and 12 hours after APAP
Description: Mice were fasted for 15 hours before oral APAP administration (500 mg/Kg) or vehicle (sterile saline). After 24 hours mice were anesthetized for respiratory mechanics analysis (described below) and then killed for blood (serum), liver, bronchoalveolar lavage fluid (BALF), and lung collection. Alanine aminotransferase (ALT) levels were measured in the serum using an enzyme activity test (Bioclin). The myeloperoxidase activity assay was performed as described before. BALF was performed by washing the lungs twice with 1 mL of PBS 10 mM EDTA with a polyethylene cannula 18 G resulting in a total of 2 mL of lavage. Cells were centrifuged and used for total cell count and differential cell count after Romanowsky staining (Panótico Rápido LB)[59]. Fragments of liver and the left lobe of the lungs were fixed and then sectioned for histological analysis (Haematoxylin and Eosin). For the drug-induced liver injury model, mice were orally treated with AS605240 6 and 12 hours after APAP treatment or with n-Acetylcysteine (NAC) 1 hour before APAP or 6 and 12 hours after APAP treatment. AS605240 was diluted in 0,9% Saline + 0.5% CMC + 0.1% Tween 20 and given in a dose of 20 mg/Kg and NAC was diluted in 0.9% saline and given in a dose of 600 mg/Kg.
Animals were anesthetized with a mixture of Ketamine/Xylazine (200 mg/Kg and 15 mg/Kg, respectively) as indicated by Buxco. Dynamic compliance (mL/cm H2O), lung resistance (cm H2O × s/mL) and Forced Expiratory Volume at 100 ms (FEV100) (mL) were assessed in tracheostomized and mechanically ventilated mice using Forced Manoeuvres Platform (Buxco)[53].
as §1

[3] = APAP 500 mg/Kg, AS605240 20 mg/Kg, vs WT mice

Row | Compound | migration of mononuclear cells into the pleural cavity (C57BL/6 mice [1]; AS605240 20 mg/kg oral) | neutrophil recruitment into the pleural cavity (C57BL/6 mice [1]; AS605240 20 mg/kg oral) | total leukocytes recruited into the pleural cavity (C57BL/6 mice [1]; AS605240 20 mg/kg oral 1 h prior and 6 h after CpG, vs untreated WT) | lung remote damage (histological score of lung) (C57BL/6 mice [2]; APAP 500 mg/Kg, AS605240 20 mg/Kg) | reduction in serum ALT levels (C57BL/6 mice [2]; APAP 500 mg/Kg, 24 h) | reduction in serum ALT levels (C57BL/6 mice [2]; APAP 500 mg/Kg, 24 h, listed as AS650240) [%] | ALT levels in the serum (C57BL/6 mice [2]; [3]) | MPO levels in the liver (C57BL/6 mice [2]; [3]) | areas of necrotic tissue in the liver (C57BL/6 mice [2]; [3]) | serum ALT levels, therapeutic treatment (C57BL/6 mice [2]; NAC 600 mg/Kg 6 and 12 hours after APAP, 24 h) | serum ALT levels, prophylactic treatment (C57BL/6 mice [2]; NAC 600 mg/Kg 1 hour before APAP, 24 h)
1 | O=C1NC(=O)/C(=C\c2ccc3nccnc3c2)S1 [AS605240] | lower effect | reduced neutrophil recruitment | less leukocytes recruited into the pleural cavity | reduce lung remote damage | approximately 50% | 50 | lower levels of ALT in the serum | lower MPO levels in the liver | less areas of necrotic tissue |  | 
2 | CC(=O)N[C@@H](CS)C(=O)O [NAC, N-acetyl-cysteine] |  |  |  |  |  |  |  |  |  | not able to reduce ALT levels; also recorded: no impact | completely abrogated the rise of ALT levels

Reference: PMC6910931, “Converging TLR9 and PI3Kgamma signaling induces sterile inflammation and organ damage” (Scientific Reports, 2019)
